PMC5329011 (Frontiers in Neuroscience, 2017)
Read-outs that look alike come from different tables or passages of the source. Values belong to the molecule of their own block, whether it stands above or below them. Ends that are not written are not given here.

Key:
apelin receptor [1] = molecular target: T1, apelin receptor (Homo sapiens, UniProt P35414); assay: Inhibition of forskolin-stimulated cAMP accumulation (DiscoverX); type: cell-based; conditions: 15 μmol/L forskolin, cells expressing human apelin receptor, mean ± SEM, n = replicates/experiments, read-out: pD2, inhibition of forskolin-stimulated cAMP (converted)
T1 sequence (P35414 1-380): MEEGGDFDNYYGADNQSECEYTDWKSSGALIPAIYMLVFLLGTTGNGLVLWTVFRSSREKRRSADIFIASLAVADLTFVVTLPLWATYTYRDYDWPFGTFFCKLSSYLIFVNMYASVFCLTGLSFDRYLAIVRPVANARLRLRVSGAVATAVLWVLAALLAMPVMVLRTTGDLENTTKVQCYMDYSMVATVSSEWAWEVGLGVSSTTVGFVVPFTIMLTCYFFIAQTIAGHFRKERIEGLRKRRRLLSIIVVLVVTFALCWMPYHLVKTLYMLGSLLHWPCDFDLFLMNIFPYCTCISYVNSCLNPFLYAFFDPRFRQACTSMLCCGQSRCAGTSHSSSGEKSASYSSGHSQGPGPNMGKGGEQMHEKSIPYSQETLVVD
Procedure: (§1) Inhibition of cAMP accumulation, β-arrestin recruitment and receptor internalization by apelin isoforms, modified and truncated apelin peptides were studied using cells expressing the human apelin receptor (DiscoverX, CA, USA) as per the manufacturer's instructions. In all assays the resulting chemiluminescent signal was measured as relative light units (RLU) using a LumiLITE™ Microplate Reader (DiscoveRx, Fremont, CA). […] Agonist responses were expressed as a % of the forskolin response. […] Data were analyzed using a 4-parameter logistic equation using GraphPad Prism 6 to determine values of potency, pD2 (−log10 EC50, where EC50 is the concentration producing half maximal response) and maximum response (EMAX). n-Values are given as number of replicates/number of experiments.

apelin receptor [2] = molecular target: T1, apelin receptor; assay: β-arrestin recruitment assay (DiscoverX); type: cell-based; conditions: cells expressing human apelin receptor, mean ± SEM, n = replicates/experiments, read-out: pD2, β-arrestin recruitment (converted)
Procedure: as §1

apelin receptor [3] = molecular target: T1, apelin receptor; assay: Receptor internalization assay (DiscoverX); type: cell-based
Procedure: as §1

apelin receptor [4] = molecular target: T1, apelin receptor; assay: β-arrestin assay without and with pre-incubation with rhACE2; type: cell-based
Procedure: as §1

[5] = molecular target: T2, vascular smooth muscle apelin receptor (Homo sapiens, UniProt P35414); assay: Contraction of endothelium-denuded human saphenous vein; conditions: n = 9; for Emax: % of terminal response to KCl (100 mmol/L)
T2 construct: from tissue; host or cells: endothelium-denuded human saphenous vein
T2 sequence (P35414 1-380): T1 sequence (P35414 1-380)
Procedure: (§2) Vascular smooth muscle apelin receptor-mediated contraction was exploited in a bioassay to compare the in vitro potency of apelin peptides. […] Agonist responses were expressed as a % of a terminal response to KCl (100 mmol/L). […] Data were expressed as % of the terminal response to CaCl2. Data from vascular and cardiac experiments were analyzed using a 4-prameter logistic curve (GraphPad Prism 6) to determine values of pD2 and EMAX.

[6] = human, in vivo
Procedure: Studies were performed in healthy volunteers (n = 12) in the University of Cambridge Vascular Research Unit, Addenbrooke's Hospital, Cambridge, UK. This study was carried out in accordance with the recommendations of the National Research Ethics Service Committee East of England-Cambridge Central with written informed consent from all subjects. All subjects gave written informed consent in accordance with the Declaration of Helsinki. The protocol was approved by the National Research Ethics Service Committee East of England-Cambridge Central (REC 11/EE/0305).
Exclusion criteria were ischemic heart disease, respiratory, renal or neurological disease, diabetes mellitus, hypertension, BMI > 30, BMI <18; smoker; pregnant; use of vasoactive medication or NSAIDS/aspirin within 48 h of study; current involvement in other research studies. An Omron HEM705CP oscillimetric sphygmomanometer was used to measure blood pressure and heart rate at baseline and then every 6 min in the contralateral arm. Periodically, a cuff around the upper arm was inflated for ~8 s to 40 mmHg then deflated for 4 s to interrupt venous return and during a 3 min measurement hand circulation was excluded by inflation of wrist cuffs to 200 mmHg. Changes in forearm volume were measured by mercury-in-silastic strain gauge with FBF subsequently expressed as ml/100 ml forearm volume per min. […]

apelin receptor [7] = molecular target: T1, apelin receptor; assay: Competition binding with [Glp65,Nle75,Tyr77][125I]apelin-13 in human left ventricle homogenate; parameters: from tissue; host or cells: human left ventricle homogenate
Procedure: Assays were performed in human heart as previously described (Brame et al., [2015]). […] Equilibrium was broken by centrifugation (20,000 g for 10 min, 4°C) and pellets washed with Tris-HCl buffer (50 mmol/L, pH 7.4, 4°C), re-centrifuged and pellets counted for detection of bound radioactivity. Competition binding data were analyzed using GraphPad Prism 6 (GraphPad Software, Inc. La Jolla, CA, USA) to obtain values of pKi (the negative log10 of the dissociation constant derived from the IC50 for the competing ligands, the radioligand concentration and radioligand affinity by the Cheng and Prusoff equation). Experiments were performed in triplicate.
Measurements are mean ± standard error of the mean (SEM). […] Cell assay pD2 values were compared by one-way ANOVA followed by Tukey's multiple comparison test.

recombinant human ACE2 = molecular target: T3, recombinant human ACE2 (Homo sapiens, UniProt Q9BYF1); assay: Incubation with rhACE2, Maldi-TOF mass spectrometry; type: in vitro ADME; conditions: 5 nmol peptide, 5 pmol rhACE2, MES buffer pH 6.5, 2 h, 37°C, Maldi-TOF read-out
T3 construct: purchased GSK, Ware, UK
Procedure: The reaction mixture was analyzed by Maldi-TOF mass spectrometry after samples were desalted using Millipore μC18ZipTip (MA, USA), washed with 5% acetic acid and eluted with CHCA matrix (in 50% aqueous acetonitrile containing 0.1% trifluoroacetic acid) to a stainless steel sample slide. Samples were air dried and analyzed using a Waters Maldi MicroMX time-of-flight mass spectrometer (MA, USA). Calibration was external using polyethylene glycol. The 10 Hz-laser power was just above threshold. The spectra were the sum of 1,000 shots collected from a spiral track of the sample area. Data were processed using Waters MassLynx software (MA, USA).

[8] = cited from earlier work
Excerpt: Apelins are modulators of vascular tone and cardiac contractility in vitro and in vivo (Japp et al., [2008], [2010]; Maguire et al., [2009]; Barnes et al., [2013]; Brame et al., [2015]).

[9] = test system: mouse paced right ventricle; assay: Inotropic action in mouse paced right ventricle; conditions: mouse paced RV, n = 6 (isoprenaline n = 4)
Procedure: as §2

rhACE2 = rhACE2 enzyme (5 pmol, GSK) in buffer (pH 6.5) containing MES (500 mmol/L), NaCl (300 mmol/L) and ZnCl2 (10 μmol/L); conditions: human, 37°C, up to 2 h
rat in vivo = conditions: cited from earlier work

T3 sequence (Q9BYF1 18-740 limits assumed): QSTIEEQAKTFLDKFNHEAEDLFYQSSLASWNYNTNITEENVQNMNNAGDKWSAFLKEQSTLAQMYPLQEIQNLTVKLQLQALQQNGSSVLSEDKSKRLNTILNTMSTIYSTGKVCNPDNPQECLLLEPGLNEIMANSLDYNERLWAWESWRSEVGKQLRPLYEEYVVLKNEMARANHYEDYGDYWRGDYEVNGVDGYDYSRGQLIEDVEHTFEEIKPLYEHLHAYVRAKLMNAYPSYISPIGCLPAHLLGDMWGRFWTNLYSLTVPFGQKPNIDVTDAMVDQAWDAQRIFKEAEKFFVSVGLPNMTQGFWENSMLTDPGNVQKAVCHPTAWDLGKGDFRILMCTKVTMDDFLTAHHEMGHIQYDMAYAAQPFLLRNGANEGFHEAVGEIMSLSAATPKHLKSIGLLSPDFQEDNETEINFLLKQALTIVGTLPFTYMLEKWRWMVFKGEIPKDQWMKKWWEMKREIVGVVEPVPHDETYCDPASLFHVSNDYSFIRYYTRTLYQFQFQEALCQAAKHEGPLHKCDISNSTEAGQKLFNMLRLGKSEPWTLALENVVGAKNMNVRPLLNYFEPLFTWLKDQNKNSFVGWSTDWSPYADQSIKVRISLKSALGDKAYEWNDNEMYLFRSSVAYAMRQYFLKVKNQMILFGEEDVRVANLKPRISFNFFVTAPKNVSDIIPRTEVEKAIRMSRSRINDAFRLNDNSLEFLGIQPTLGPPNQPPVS

Molecule: CSCC[C@H](NC(=O)[C@@H]1CCCN1C(=O)CNC(=O)[C@H](CCCCN)NC(=O)[C@H](Cc1cnc[nH]1)NC(=O)[C@H](CO)NC(=O)[C@H](CC(C)C)NC(=O)[C@H](CCCNC(=N)N)NC(=O)[C@@H]1CCCN1C(=O)[C@H](CCCNC(=N)N)NC(=O)[C@@H]1CCC(=O)N1)C(=O)N1CCC[C@H]1C(=O)N[C@@H](Cc1ccccc1)C(=O)O [[Pyr^1]apelin-13]
result of incubation with rhACE2 (recombinant human ACE2): de novo generation of [Pyr^1]apelin-13(1–12), with a weak signal representing the remaining parent peptide | half-life ([8]; humans, ref Japp et al., 2008): less than 8 min | half-life ([8]; rat, ref Brame et al., 2015): less than 3 min

Molecule: CSCC[C@H](NC(=O)[C@@H]1CCCN1C(=O)CNC(=O)[C@H](CCCCN)NC(=O)[C@H](Cc1c[nH]cn1)NC(=O)[C@H](CO)NC(=O)[C@H](CC(C)C)NC(=O)[C@H](CCCNC(=N)N)NC(=O)[C@@H]1CCCN1C(=O)[C@H](CCCNC(=N)N)NC(=O)[C@@H](N)CCC(N)=O)C(=O)N1CCC[C@H]1C(=O)N[C@@H](C)C(=O)O [apelin-13(F13A), reference compound]
Emax [5]: 23 ± 4%

Molecule: pGlu-Arg-Pro-Arg-Leu-Ser-His-Lys-Gly-Pro-Met-Pro
not cleaved (rhACE2): did not produce shorter apelin fragments (2 h)

Second part, led by results:

EC50 (apelin receptor [1]): 0.501 nM | EC50 (apelin receptor [2]): 14.5 nM | Emax (apelin receptor [3]): 97 ± 2% | EC50 (apelin receptor [3]; mean ± SEM, SEM, read-out: pD2, receptor internalization (converted)): 6.46 nM | EMAX (% [Pyr^1]apelin-13) (apelin receptor [4]; without or with pre-incubation with rhACE2): 98 ± 5 % [Pyr^1]apelin-13 | EC50 (apelin receptor [4]; without or with pre-incubation with rhACE2 (2 h, 37°C), mean ± SEM, SEM, read-out: Potency (pD2) (converted)): 53.7 nM | Emax [5]: 24 ± 6% | EC50 ([5]; endothelium-denuded human saphenous vein, mean ± SEM, SEM, read-out: pD2, contraction of saphenous vein (converted)): 0.234 nM | Ki (apelin receptor [7]; 0.1 nmol/L radioligand, 90 min, 22°C, pH 7.4, Cheng-Prusoff, mean ± SEM, n = 3, SEM): 9.12 nM
Molecule: CSCC[C@H](NC(=O)[C@@H]1CCCN1C(=O)CNC(=O)[C@H](CCCCN)NC(=O)[C@H](Cc1c[nH]cn1)NC(=O)[C@H](CO)NC(=O)[C@H](CC(C)C)NC(=O)[C@H](CCCNC(=N)N)NC(=O)[C@@H]1CCCN1C(=O)[C@H](CCCNC(=N)N)NC(=O)[C@@H]1CCC(=O)N1)C(=O)N1CCC[C@H]1C(=O)O [[Pyr^1]apelin-13(1–12)]
effect on heart rate or blood pressure [6]: No significant effects

EC50 ([9]; mean ± SEM, SEM, read-out: pD2, increase in force of contraction (converted)): 13.2 nM
Molecule: CC(C)NCC(O)c1ccc(O)c(O)c1 (stereo not shown) [isoprenaline]
EMAX, increase in force of contraction [9]: 78 ± 17 % CaCl2

EC50 (apelin receptor [1]): 2 nM | EC50 (apelin receptor [2]): 5.5 nM | % of specific binding competed for (apelin receptor [7]; single concentration 1 μM peptide): 100%
Molecule: RPRLSHKGPM [apelin-13(R10M)]

cleaved bond (rhACE2): Pro12-Phe13, 2 h
Molecule: pGlu-Arg-Pro-Arg-Leu-Ser-His-Lys-Gly-Pro-Met-Pro-Phe
cleaved bond (rat in vivo): Pro12-Phe13, minor
